For orientation: EC50 means the concentration that produces a half-maximal response.

The target of the assay is T1, human GPR120 (Homo sapiens, UniProt Q5NUL3).
T1 construct: expressed in transfected cells
T1 sequence (Q5NUL3 1-361): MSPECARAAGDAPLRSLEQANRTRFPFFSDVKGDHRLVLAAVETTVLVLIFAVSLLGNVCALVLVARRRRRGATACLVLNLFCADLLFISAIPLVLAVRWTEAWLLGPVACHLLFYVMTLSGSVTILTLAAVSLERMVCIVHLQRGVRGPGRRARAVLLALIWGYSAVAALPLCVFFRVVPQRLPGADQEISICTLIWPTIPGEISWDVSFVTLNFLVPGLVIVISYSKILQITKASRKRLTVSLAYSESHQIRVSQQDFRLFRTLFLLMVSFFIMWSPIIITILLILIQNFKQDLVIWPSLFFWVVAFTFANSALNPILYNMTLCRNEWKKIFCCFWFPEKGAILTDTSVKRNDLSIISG
Briefly: Human GPR120 IP1 Assay (inositol phosphate turnover, CisBio IP-One kit). The class given is cell-based. Particulars: IP1 accumulation in CHO-K1 cells stably expressing the short form of human GPR120; 60 min compound incubation; 4-parameter fit; read-out: hGPR120 EC50. The method, boiled down:
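CHO-K1 cells stably expressing short-form human GPR120 were stimulated with compounds for 60 minutes at 37 degrees in stimulation buffer. IP1 accumulation measured by HTRF competitive immunoassay (665/620 nm ratio) against an IP1 standard curve, normalized to a reference compound; EC50 from 4-parameter fit.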

On to `C[C@H]1C[C@H](Oc2cc(F)c(F)c(N3CCc4c(ccc([C@H]5C[C@@H]5C(=O)O)c4F)C3)c2)C1` [Example 122, (1S,2S)-2-(2-{2,3-difluoro-5-[(trans-3-methylcyclobutyl)oxy]phenyl}-5-fluoro-1,2,3,4-tetrahydro-isoquinolin-6-yl)cyclopropane-carboxylic acid], for which the EC50 is 121 nM.
Next, `O=C(O)[C@@H]1C[C@H]1c1ccc2c(c1F)CCN(c1cc(OC3CCC3)cc(Cl)c1F)C2` [Example 123, (1R,2R)-2-{2-[3-chloro-5-(cyclobutyloxy)-2-fluorophenyl]-5-fluoro-1,2,3,4-tetrahydroisoquinolin-6-yl}cyclopropane-carboxylic acid]: 766 nM.
The result for `O=C(O)[C@H]1C[C@@H]1c1ccc2c(c1F)CCN(c1cc(OC(F)(F)F)cc(F)c1Cl)C2` [Example 124, (1S,2S)-2-{2-[2-chloro-3-fluoro-5-(trifluoromethoxy)phenyl]-5-fluoro-1,2,3,4-tetrahydro-isoquinolin-6-yl}cyclopropane-carboxylic acid] reads 824 nM.
Next, `O=C(O)[C@H]1C[C@@H]1c1ccc2c(c1F)CCN(c1cc(OC3CCC3)cc(Cl)c1F)C2` [Example 125, (1S,2S)-2-{2-[3-chloro-5-(cyclobutyloxy)-2-fluorophenyl]-5-fluoro-1,2,3,4-tetrahydroisoquinolin-6-yl}cyclopropane-carboxylic acid]: 414 nM.
For the molecule `N#Cc1c(F)cc(OC2CCC2)cc1N1CCc2c(ccc([C@H]3C[C@@H]3C(=O)O)c2F)C1` [Example 126, (1S,2S)-2-{2-[2-cyano-5-(cyclo-butyloxy)-3-fluorophenyl]-5-fluoro-1,2,3,4-tetrahydroiso-quinolin-6-yl}cyclopropane-carboxylic acid], the EC50 worked out at 9740 nM.
On to `Cc1ccc(-n2nc(C)c(C#N)c2N2CCc3cc(CCCCC(=O)O)ccc3C2)cc1` [Example 127, 5-(2-(4-cyano-3-methyl-1-(p-tolyl)-1H-pyrazol-5-yl)-1,2,3,4-tetrahydro-isoquinolin-6-yl)pentanoic acid], for which the EC50 was 35 nM.
The result for `Cc1ccc(-n2nc(C)c(C#N)c2N2CCc3cc(O)ccc3C2)cc1` [Example 129, 5-(6-hydroxy-3,4-dihydroisoquinolin-2(1H)-yl)-3-methyl-1-(p-tolyl)-1H-pyrazole-4-carbonitrile] reads 92 nM; that for `Cc1ccc(-n2nc(C)c(C#N)c2N2CCc3cc(OCCO)ccc3C2)cc1` [Example 130, 5-(6-(2-hydroxyethoxy)-3,4-dihydroisoquinolin-2(1H)-yl)-3-methyl-1-(p-tolyl)-1H-pyrazole-4-carbonitrile], 87 nM; that for `O=C(O)CCc1cc2c(cc1F)CN(c1cc(OC3CCC3)cc(F)c1F)CC2` [Example 131, 3-(2-(5-cyclobutoxy-2,3-difluorophenyl)-7-fluoro-1,2,3,4-tetrahydro-isoquinolin-6-yl)propanoic acid], 174 nM.
The result for `CO[C@H]1C[C@H](Oc2cc(F)c(F)c(N3CCc4cc(CCc5nnn[nH]5)ccc4C3)c2)C1` [Example 132, 6-(2-(1H-tetrazol-5-yl)ethyl)-2-(2,3-difluoro-5-((1r,3r)-3-methoxylcyclobutoxy)-phenyl)-1,2,3,4-tetrahydroisoquinoline] reads 406 nM; that for `COc1ccc(-n2nc(C)c(C#N)c2N2CCc3cc(CCCCC(=O)O)ccc3C2)cc1` [Example 133, 5-{2-[4-cyano-1-(4-methoxyphenyl)-3-methyl-1H-pyrazol-5-yl]-1,2,3,4-tetrahydroisoquinolin-6-yl} pentanoic acid], 50 nM; that for `Cc1ccc(-n2nc(C)c(C#N)c2N2CCc3cc(CCCCC(=O)O)ccc3C2)cc1` [Example 134, 5-{2-[4-cyano-3-methyl-1-(4-methyl-phenyl)-1H-pyrazol-5-yl]-1,2,3,4-tetrahydroisoquinolin-6-yl}pentanoic acid], 41 nM.
The result for `Cc1ccc(-n2nc(C)c(Cl)c2N2CCc3cc(CCCCC(=O)O)ccc3C2)cc1` [Example 137, 5-{2-[4-chloro-3-methyl-1-(4-methylphenyl)-1H-pyrazol-5-yl]-1,2,3,4-tetrahydroisoquinolin-6-yl} pentanoic acid] reads 93 nM.
In the case of `Cc1ccc(-n2nc(C)c(C#N)c2N2CCc3cc(OCCCCO)ccc3C2)cc1` [Example 139, 5-[6-(4-hydroxybutoxy)-3,4-dihydro-isoquinolin-2(1H)-yl]-3-methyl-1-(4-methylphenyl)-1H-pyrazole-4-carbonitrile], the EC50 came to 187 nM.
Next, `COc1ccc(-n2nc(C)c(C#N)c2N2CCc3ccccc3C2)cc1` [Example 141, 5-(3,4-dihydroisoquinolin-2(1H)-yl)-1-(4-methoxyphenyl)-3-methyl-1H-pyrazole-4-carbonitrile]: 288 nM; `Cc1ccc(-n2nc(C)c(F)c2CN2CCc3cc(CCC(=O)O)ccc3C2)cc1` [Example 143, 3-(2-{[4-fluoro-3-methyl-1-(4-methylphenyl)-1H-pyrazol-5-yl]methyl}-1,2,3,4-tetrahydroisoquinolin-6-yl)propanoic acid]: 395 nM.
The result for `Cc1ccc(-n2nc(C)c(C#N)c2N2CCc3cc(OCCCO)ccc3C2)cc1` [Example 144, 5-[6-(3-hydroxypropoxy)-3,4-dihydroisoquinolin-2(1H)-yl]-3-methyl-1-(4-methylphenyl)-1H-pyrazole-4-carbonitrile] reads 4300 nM; that for `Cc1ccc(-n2nc(C)c(Cl)c2N2CCc3c(ccc(CCC(=O)O)c3F)C2)cc1` [Example 146, 3-{2-[4-chloro-3-methyl-1-(4-methylphenyl)-1H-pyrazol-5-yl]-5-fluoro-1,2,3,4-tetrahydroisoquinolin-6-yl}propanoic acid], 309 nM; that for `Cc1cc(-c2cscn2)nc(N2CCc3c(ccc(CCC(=O)O)c3F)C2)c1C#N` [Example 147, 3-[2-(3-Cyano-4-methyl-6-thiazol-4-yl-pyridin-2-yl)-5-fluoro-1,2,3,4-tetrahydro-isoquinolin-6-yl]-propionic acid], 141 nM.
The result for `COc1cc(OC2CCC2)nc(N2CCc3c(ccc(CCC(=O)O)c3F)C2)c1F` [Example 148, 3-(2-(6-cyclobutoxy-3-fluoro-4-methoxypyridin-2-yl)-5-fluoro-1,2,3,4-tetra-hydroisoquinolin-6-yl)propanoic acid] reads 9 nM.
`Cc1nc(OC2CCC2)cc(N2CCc3c(ccc(CCC(=O)O)c3F)C2)c1C#N` [Example 149, 3-(2-(3-cyano-6-cyclobutoxy-2-methylpyridin-4-yl)-5-fluoro-1,2,3,4-tetrahydroisoquinolin-6-yl)propanoic acid]: the EC50 is 33 nM.
The result for `N#Cc1c(Cl)cc(OC2CCC2)cc1N1CCc2c(ccc(CCC(=O)O)c2F)C1` [Example 150, 3-{2-[3-chloro-2-cyano-5-(cyclobutyloxy)phenyl]-5-fluoro-1,2,3,4-tetrahydroisoquinolin-6-yl} propanoic acid] reads 16 nM; that for `Cc1nc(N2CCc3c(ccc(CCC(=O)O)c3F)C2)nc(OC2CCC2)c1C#N` [Example 151, 3-{2-[5-cyano-4-(cyclobutyloxy)-6-methylpyrimidin-2-yl]-5-fluoro-1,2,3,4-tetrahydroisoquino-lin-6-yl}propanoic acid], 34 nM; that for `Cc1nc(OC2CCC2)nc(N2CCc3c(ccc(CCC(=O)O)c3F)C2)c1C#N` [Example 152, 3-{2-[5-cyano-2-(cyclobutyloxy)-6-methylpyrimidin-4-yl]-5-fluoro-1,2,3,4-tetrahydroisoquino-lin-6-yl}propanoic acid], 69 nM.
Next, `N#Cc1c(F)cc(OC2CCC2)cc1N1CCc2c(ccc(CCC(=O)O)c2Cl)C1` [Example 153, 3-{5-chloro-2-[2-cyano-5-(cyclobutyloxy)-3-fluorophenyl]-1,2,3,4-tetrahydroisoquinolin-6-yl}-propanoic acid]: 87 nM.
The result for `O=C(O)CCc1ccc2c(c1F)CCN(c1cccc(C3CC3)n1)C2` [Example 154, 3-[2-(6-cyclopropylpyridin-2-yl)-5-fluoro-1,2,3,4-tetrahydroiso-quinolin-6-yl]propanoic acid] reads 167 nM; that for `N#Cc1c(F)cc(OC2CCC2)cc1N1CCc2c(ccc(CCC(=O)O)c2F)C1` [Example 155, 3-{2-[2-cyano-5-(cyclobutyloxy)-3-fluorophenyl]-5-fluoro-1,2,3,4-tetrahydroisoquinolin-6-yl}-propanoic acid], 17 nM.
On to `O=C(O)CCc1ccc2c(c1)CCN(c1cc(OC(F)(F)F)cc(Cl)c1Cl)C2` [Example 156, 3-{2-[2,3-dichloro-5-(trifluoro-methoxy)phenyl]-1,2,3,4-tetra-hydroisoquinolin-6-yl}propanoic acid], for which the EC50 was 62 nM.
The result for `Cc1c(CCC(=O)O)ccc2c1CCN(c1cc(OC3CCC3)cc(F)c1C#N)C2` [Example 157, 3-{2-[2-cyano-5-(cyclobutyloxy) 3-fluorophenyl]-5-methyl-1,2,3,4-tetrahydroisoquinolin-6-yl}-propanoic acid] reads 15 nM.
